From patent publication US4404211A, “Analgesic mixture of nalbuphine and flurbiprofen” (E. I. Du Pont de Nemours and Company, priority 1982, dated 1983) come the findings set out here.

In this assay the test system is phenyl-p-benzoquinone induced writhing in mice. Briefly: mouse antiphenylquinone (phenyl-p-benzoquinone induced) writhing test, oral, 20 min.

Each structure is given as a SMILES string.

Experimental: Male CF1 mice obtained from Charles River Breeding Laboratories, fasted for 16-22 hours and weighing 18-22 g at the time of testing are used throughout. All mice are dosed sequentially by the oral route with solutions of flurbiprofen and/or of nalbuphine hydrochloride. A dosing volume of 10 ml/kg is used for each sequential solution or suspension. […] All doses are coded and the test is performed under a code not known to the observer.
A stock solution of flurbiprofen is prepared by dissolving dry flurbiprofen powder with an equimolar amount of one molar sodium hydroxide and sufficient water to produce the required solution concentration. The acidity is adjusted with dilute hydrochloric acid to pH 9.0. All dosing solutions are prepared by dilution of the stock solution with distilled water; the vehicle control is distilled water.
Stock solutions of nalbuphine HCl are prepared by dissolving dry nalbuphine hydrochloride powder with distilled water. All dosing solutions are prepared by dilution of the stock solution with distilled water; the vehicle control is distilled water.
As indicated above, the standard procedure based upon the prevention of phenyl-p-benzoquinone induced writhing in mice is utilized to detect and quantify the analgetic activity of compositions containing nalbuphine and flurbiprofen.
Mice, intubated with various doses of nalbuphine hydrochloride, flurbiprofen, combined doses of nalbuphine hydrochloride and flurbiprofen,or vehicle, are injected intraperitoneally with a challenge dose of phenyl-p-benzoquinone 5 minutes prior to the designated observation period. […] For scoring purposes a "writhe" is indicated by whole body stretching or contraction of the abdomen; mice are observed 10 minutes for the presence or absence of writhing beginning 5 minutes after receiving the phenyl-p-benzoquinone dose. Each mouse is used only once, then discarded. […] This dosage as described herein is referred to as the ED50.
In order to study the interaction between nalbuphine and flurbiprofen, 5 precise dosage ratios of nalbuphine hydrochloride and flurbiprofen are selected. Four or five coded doses of each selected combination are studied for analgesic effectivenss at 20 minutes using an experimental design which permits coding and complete randomization of the separate dosage forms tested. Althogether 35 separate dosage forms are used and each form is represented in each experimental session. The experiments are continued by running experimental sessions with an equal number of mice per group being tested until the total number, N, of mice tested per group is 20. Later, an additional 20 mice/dose are tested and the results are pooled with the original data to yield N=20-40 mice/dose.

As usually defined, the ED50 is the dose that gives a 50% effect, or the effect in half of the subjects. With `Oc1ccc2c3c1O[C@H]1[C@@H](O)CC[C@@]4(O)[C@@H](C2)N(CC2CCC2)CC[C@]314` [Nalbuphine Only (1:0), (-)-17-(cyclobutylmethyl)-4,5α-epoxymorphinan-3,6α,14-triol], the “% MICE BLOCKED” value is, setting by setting: (nalbuphine HCl 2.93 + flurbiprofen 0 mg/kg) 12.5%; (nalbuphine HCl 5.85 + flurbiprofen 0 mg/kg) 22.5%; (nalbuphine HCl 11.7 + flurbiprofen 0 mg/kg) 45.0%; (nalbuphine HCl 23.4 + flurbiprofen 0 mg/kg) 67.5%; (nalbuphine HCl 46.8 + flurbiprofen 0 mg/kg) 80.0%. Where the note is “nalbuphine HCl dose (alone or as component of the combination), N = 20-40 mice/dose”, the “ED50 at 20 Min. (95% Confidence Limits), Nalbuphine HCl” value is given as 16.5 mg/kg.
Consider `CC(C(=O)O)c1ccc(-c2ccccc2)c(F)c1` (stereo not drawn) [Flurbiprofen Only (0:1), 2-fluoro-α-methyl[1,1'-biphenyl]-4-acetic acid], for which the “ED50 at 20 Min. (95% Confidence Limits), Flurbiprofen” value (flurbiprofen dose (alone or as component of the combination), N = 20-40 mice/dose) is recorded as 1.56 mg/kg. Moreover, the “% MICE BLOCKED” value reads like this: (nalbuphine HCl 0 + flurbiprofen 0.4 mg/kg) 5.0%; (nalbuphine HCl 0 + flurbiprofen 0.8 mg/kg) 32.5%; (nalbuphine HCl 0 + flurbiprofen 1.6 mg/kg) 45.0%; (nalbuphine HCl 0 + flurbiprofen 3.2 mg/kg) 87.5%.
